Assay results published in ChEMBL document CHEMBL4152218, “Novel hydrazide-hydrazone and amide substituted coumarin derivatives: Synthesis, cytotoxicity screening, microarray, radiolabeling and in vivo pharmacokinetic studies” (Eur J Med Chem, 2018).
Calls of active or inactive are those of the source. The rule behind the calls is not given here.

How the values were obtained:
HepG2 [1] = assay: Effect on GADD45A gene expression in human HepG2 cells at IC50 after 48 hrs by microarray analysis relative to control; type: functional
PANC-1 [2] = assay: Effect on HSPE1 gene expression in human PANC1 cells at IC50 after 48 hrs by microarray analysis; type: functional, cell-based
PANC-1 [3] = assay: Effect on LIMK1 gene expression in human PANC1 cells at IC50 after 48 hrs by microarray analysis; type: functional, cell-based
[4] = Selectivity index, ratio of IC50 for hTERT-BJ cells to IC50 for human PANC1 cells; type: toxicity; details: hTERT-BJ cells versus PANC1 cells, read-out: Ratio IC50
HepG2 [5] = assay: Effect on CASP7 gene expression in human HepG2 cells at IC50 after 48 hrs by microarray analysis relative to control; type: functional
HepG2 [6] = assay: Effect on GDF15 gene expression in human HepG2 cells at IC50 by SYBR green-dye based qRT-PCR analysis relative to beta-actin; type: functional
PANC-1 [7] = assay: Effect on HIST1H4C gene expression in human PANC1 cells at IC50 after 48 hrs by microarray analysis; type: functional, cell-based
HepG2 [8] = assay: Effect on DKK1 gene expression in human HepG2 cells at IC50 after 48 hrs by microarray analysis; type: functional, cell-based
HepG2 [9] = assay: Effect on DIDO1 gene expression in human HepG2 cells at IC50 after 48 hrs by microarray analysis; type: functional, cell-based
PANC-1 [10] = assay: Effect on ZNF148 gene expression in human PANC1 cells at IC50 after 48 hrs by microarray analysis; type: functional, cell-based
PANC-1 [11] = assay: Effect on LOC407835 gene expression in human PANC1 cells at IC50 after 48 hrs by microarray analysis; type: functional, cell-based
TERT-RPE1 = assay: Cytotoxicity against hTERT-RPE1 cells at 50 uM after 48 hrs by resazurin dye-based fluorescence assay relative to control; type: cell-based; details: human, tert-rpe1, 48 h
HepG2 [12] = assay: Antiproliferative activity against human HepG2 cells after 48 hrs by resazurin dye-based fluorescence assay; type: functional, cell-based; details: HepG2, 48 h
HepG2 [13] = assay: Effect on MYO 10 gene expression in human HepG2 cells at IC50 after 48 hrs by microarray analysis; type: functional, cell-based
HepG2 [14] = assay: Effect on TOP2A gene expression in human HepG2 cells at IC50 after 48 hrs by microarray analysis; type: functional, cell-based
HepG2 [15] = assay: Effect on TOP2A gene expression in human HepG2 cells at IC50 by SYBR green-dye based qRT-PCR analysis relative to beta-actin; type: functional

Q: For `O=C(N/N=C/c1cc2ccccc2nc1Cl)c1cc2cc(Br)ccc2oc1=O`, which “fold change (FC)” value (HepG2 [1]) is on record?
A: 1.96

Q: And the Activity (PANC-1 [2])?
A: Active

Q: What about the Activity (PANC-1 [3]) of the same molecule?
A: Active

Q: What about the selectivity ratio [4] of the same molecule?
A: > 9.18

Q: And the “fold change (FC)” value (HepG2 [5])?
A: 3.18

Q: What about the “fold change (FC)” value (HepG2 [6]) of the same molecule?
A: 3.51

Q: What about the Activity (PANC-1 [7]) of the same molecule?
A: Active

Q: And the Activity (HepG2 [8])?
A: Active

Q: What about the Activity (HepG2 [9]) of the same molecule?
A: Active

Q: And the Activity (PANC-1 [10])?
A: Active

Q: And the Activity (PANC-1 [11])?
A: Active

Q: What about the Activity (TERT-RPE1) of the same molecule?
A: 20.18%

Q: And the IC50 (HepG2 [12])?
A: 9.42 µM

Q: What about the Activity (HepG2 [13]) of the same molecule?
A: Active

Q: And the Activity (HepG2 [14])?
A: Active

Q: And the “fold change (FC)” value (HepG2 [15])?
A: -1.54
